The record followed here is patent publication US20240360082A1, “SUBSTITUTED PYRIDONE COMPOUNDS USEFUL TO TREAT ORTH[…]” (priority 2021, published 2024).

Each structure is given as a SMILES string.

Chain of influenza A virus minigenome (PB2, PB1, PA, NP proteins) (P04665 whole entry): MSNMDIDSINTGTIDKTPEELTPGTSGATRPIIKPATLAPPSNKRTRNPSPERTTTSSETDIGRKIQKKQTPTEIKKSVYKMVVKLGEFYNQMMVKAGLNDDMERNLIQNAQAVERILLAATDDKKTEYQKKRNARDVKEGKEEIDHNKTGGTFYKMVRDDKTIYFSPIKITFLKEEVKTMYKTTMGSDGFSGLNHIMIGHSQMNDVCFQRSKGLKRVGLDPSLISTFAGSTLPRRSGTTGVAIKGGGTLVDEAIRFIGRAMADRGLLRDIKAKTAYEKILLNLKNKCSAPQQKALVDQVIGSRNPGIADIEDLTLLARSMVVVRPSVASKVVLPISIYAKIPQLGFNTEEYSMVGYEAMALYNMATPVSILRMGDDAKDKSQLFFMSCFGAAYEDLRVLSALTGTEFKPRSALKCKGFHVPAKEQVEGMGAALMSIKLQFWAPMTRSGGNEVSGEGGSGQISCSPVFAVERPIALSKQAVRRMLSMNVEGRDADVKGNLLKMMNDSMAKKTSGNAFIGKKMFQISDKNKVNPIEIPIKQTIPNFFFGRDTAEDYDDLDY

The first experiment addresses influenza A virus minigenome (PB2, PB1, PA, NP proteins) (UniProt P04665). The experiment is classed as cell-based. Particulars: read-out: RNP_ Hubei B IC50.
Consider `CC1(OCC2COCC(COc3ccc(-c4cc(C(N)=O)c(=O)[nH]c4C(F)(F)F)cc3)O2)COC1` (single isomer, unassigned) [Example 378], for which the IC50 lay in the range of 5 to 10 µM.
Take `CC1(OCC2COCC(COc3ccc(-c4cc(C(N)=O)c(=O)[nH]c4C(F)(F)F)cc3)O2)COC1` (single isomer, unassigned) [Example 379]: the IC50 was in the range of 5 to 10 µM.
With `COCC1OC(COc2ccc(-c3cc(C(N)=O)c(=O)[nH]c3C(F)(F)F)cc2)COC1C` (single isomer, unassigned) [Example 392, 5-(4-((6-(methoxymethyl)-5-methyl-1,4-dioxan-2-yl)methoxy)phenyl)-2-oxo-6-(trifluoromethyl)-1,2-dihydropyridine-3-carboxamide], the IC50 lay in the range of 5 to 10 µM.
Same read-out and setting: next, `COCC1OC(COc2ccc(-c3cc(C(N)=O)c(=O)[nH]c3C(F)(F)F)cc2)COC1C` (single isomer, unassigned) [Example 393, 5-(4-((6-(methoxymethyl)-5-methyl-1,4-dioxan-2-yl)methoxy)phenyl)-2-oxo-6-(trifluoromethyl)-1,2-dihydropyridine-3-carboxamide]: 5 to 10 µM; `COC[C@@H]1COC[C@H](COc2ccc(-c3cc(C(N)=O)c(=O)[nH]c3C(F)(F)F)cc2)O1` (single isomer, unassigned) [Example 400]: 5 to 10 µM.
Same read-out and setting: the value for `COC[C@H]1COC[C@H](COc2ccc(-c3cc(C(N)=O)c(=O)[nH]c3C(F)(F)F)cc2)O1` (single isomer, unassigned) [Example 401] was 5 to 10 µM.

Staying with this experiment, now noted: read-out: RNP_Hubei B.
On to `NC(=O)c1cc(-c2ccc(CN3CCOCC3)cc2)c(C(F)(F)F)[nH]c1=O` [Example 1, 5-(4-(morpholinomethyl)phenyl)-2-oxo-6-(trifluoromethyl)-1,2-dihydropyridine-3-carboxamide], for which the IC50 was in the range of 25 to 50 µM.
For the molecule `NC(=O)c1cc(-c2ccc(CO)cc2)c(C(F)(F)F)[nH]c1=O` [Example 2, 5-(4-(hydroxymethyl)phenyl)-2-oxo-6-(trifluoromethyl)-1,2-dihydropyridine-3-carboxamide], the IC50 was in the range of 25 to 50 µM.
For the molecule `NC(=O)c1cc(-c2ccc(O)cc2)c(C(F)(F)F)[nH]c1=O` [Example 3, 5-(4-hydroxyphenyl)-2-oxo-6-(trifluoromethyl)-1,2-dihydropyridine-3-carboxamide], the IC50 lay in the range of 25 to 50 µM.
Turning to `NC(=O)c1cc(-c2ccc(OCc3ccccc3)cc2)c(C(F)(F)F)[nH]c1=O` [Example 4, 5-(4-(benzyloxy)phenyl)-2-oxo-6-(trifluoromethyl)-1,2-dihydropyridine-3-carboxamide], the IC50 lay in the range of 5 to 10 µM.
Same read-out and setting: the value for `NC(=O)c1cc(-c2ccc(CN3CCCC3)cc2)c(C(F)(F)F)[nH]c1=O` [Example 5, 2-oxo-5-(4-(pyrrolidin-1-ylmethyl)phenyl)-6-(trifluoromethyl)-1,2-dihydropyridine-3-carboxamide] was 25 to 50 µM; that for `NC(=O)c1cc(-c2ccc(Oc3ccccc3)cc2)c(C(F)(F)F)[nH]c1=O` [Example 6, 2-oxo-5-(4-phenoxyphenyl)-6-(trifluoromethyl)-1,2-dihydropyridine-3-carboxamide] was 1 to 5 µM.
In the case of `NC(=O)c1cc(-c2cccc(N)c2)c(C(F)(F)F)[nH]c1=O` [Example 7, 5-(3-aminophenyl)-2-oxo-6-(trifluoromethyl)-1,2-dihydropyridine-3-carboxamide], the IC50 lay within 25 to 50 µM.
Still for that read-out and setting: next, `NC(=O)c1cc(-c2cccc(O)c2)c(C(F)(F)F)[nH]c1=O` [Example 9, 5-(3-hydroxyphenyl)-2-oxo-6-(trifluoromethyl)-1,2-dihydropyridine-3-carboxamide]: 25 to 50 µM; `COCOc1ccc(-c2cc(C(N)=O)c(=O)[nH]c2C(F)(F)F)cc1` [Example 13, 5-(4-(methoxymethoxy)phenyl)-2-oxo-6-(trifluoromethyl)-1,2-dihydropyridine-3-carboxamide]: 25 to 50 µM; `COCc1ccc(-c2cc(C(N)=O)c(=O)[nH]c2C(F)(F)F)cc1` [Example 15, 5-(4-(methoxymethyl)phenyl)-2-oxo-6-(trifluoromethyl)-1,2-dihydropyridine-3-carboxamide]: 25 to 50 µM.
Same read-out and setting: the value for `NC(=O)c1cc(-c2ccccc2)c(C(F)(F)F)[nH]c1=O` [Example 16, 2-oxo-5-phenyl-6-(trifluoromethyl)-1,2-dihydropyridine-3-carboxamide] was 25 to 50 µM; that for `CC(C)Oc1ccc(-c2cc(C(N)=O)c(=O)[nH]c2C(F)(F)F)cc1` [Example 17, 5-(4-isopropoxyphenyl)-2-oxo-6-(trifluoromethyl)-1,2-dihydropyridine-3-carboxamide] was 10 to 25 µM.
Take `COc1ccc(-c2cc(C(N)=O)c(=O)[nH]c2C(F)(F)F)cc1Cl` [Example 18, 5-(3-chloro-4-methoxyphenyl)-2-oxo-6-(trifluoromethyl)-1,2-dihydropyridine-3-carboxamide]: the IC50 was 10 to 25 µM.
`N#CCc1ccc(-c2cc(C(N)=O)c(=O)[nH]c2C(F)(F)F)cc1` [Example 20, 5-(4-(cyanomethyl)phenyl)-2-oxo-6-(trifluoromethyl)-1,2-dihydropyridine-3-carboxamide]: the IC50 was in the range of 25 to 50 µM.
`CC1COCCN1Cc1ccc(-c2cc(C(N)=O)c(=O)[nH]c2C(F)(F)F)cc1` (stereo not drawn) [Example 27, 5-(4-((3-methylmorpholino)methyl)phenyl)-2-oxo-6-(trifluoromethyl)-1,2-dihydropyridine-3-carboxamide]: the IC50 fell in the range of 10 to 25 µM.
Regarding `NC(=O)c1cc(-c2ccc(CN3CCSCC3)cc2)c(C(F)(F)F)[nH]c1=O` [Example 28, 2-oxo-5-(4-(thiomorpholinomethyl)phenyl)-6-(trifluoromethyl)-1,2-dihydropyridine-3-carboxamide], the IC50 is 1 to 5 µM.
With `CC1CN(Cc2ccc(-c3cc(C(N)=O)c(=O)[nH]c3C(F)(F)F)cc2)CCO1` (stereo not drawn) [Example 29, 5-(4-((2-methylmorpholino)methyl)phenyl)-2-oxo-6-(trifluoromethyl)-1,2-dihydropyridine-3-carboxamide], the IC50 fell in the range of 10 to 25 µM.
On the same count and under the same terms, the value for `NC(=O)c1cc(-c2ccc(CN3CCOCC34CC4)cc2)c(C(F)(F)F)[nH]c1=O` [Example 30, 5-(4-((7-oxa-4-azaspiro[2.5]octan-4-yl)methyl)phenyl)-2-oxo-6-(trifluoromethyl)-1,2-dihydropyridine-3-carboxamide] was 5 to 10 µM; that for `NC(=O)c1cc(-c2ccc(CN3C[C@H]4CC[C@@H](C3)O4)cc2)c(C(F)(F)F)[nH]c1=O` [Example 31, 5-(4-(((1R,5S)-8-oxa-3-azabicyclo[3.2.1]octan-3-yl)methyl)phenyl)-2-oxo-6-(trifluoromethyl)-1,2-dihydropyridine-3-carboxamide] was 1 to 5 µM; that for `NC(=O)c1cc(-c2ccc(CN3CCOCC3c3cccnc3)cc2)c(C(F)(F)F)[nH]c1=O` (stereo not drawn) [Example 32, 2-oxo-5-(4-((3-(pyridin-3-yl)morpholino)methyl)phenyl)-6-(trifluoromethyl)-1,2-dihydropyridine-3-carboxamide] was 25 to 50 µM.
Consider `CC(c1ccc(-c2cc(C(N)=O)c(=O)[nH]c2C(F)(F)F)cc1)N1CCOCC1` (stereo not drawn) [Example 33, 5-(4-(1-morpholinoethyl)phenyl)-2-oxo-6-(trifluoromethyl)-1,2-dihydropyridine-3-carboxamide], for which the IC50 fell in the range of 1 to 5 µM.
